In the supplement of paper PMC10627819:

What was measured:
B. subtilis 168 [1] = assay: fitness (endpoint OD595 vs no drug) (fraction); higher = more growth
In short: (§1)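 Cultures at OD595 0.01 were dispensed into 384-well plates in TSB, LB Lennox or CY and incubated at 37 °C. Every 30 min for 14 h, OD595 was read and corrected by the first reading. Fitness is the optical density at entry into stationary phase relative to the robust mean of no-drug control wells, capped at 1.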

S. pneumoniae D39V [2] = assay: as above
In short: as §1

B. subtilis 168 [3] = assay: Bliss interaction score (quartile over a dose matrix) (fitness difference); higher = more antagonism (negative = synergy)
In short: (§2)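 The Bliss score subtracts expected fitness, the product of the single-drug fitness values, from observed fitness. Fitness is plate-normalised OD595 at entry into stationary phase, relative to the robust no-drug mean and capped at 1, with single-drug fitness inferred from combinations. Summaries are quartiles over technical, biological and donor/recipient replicates.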

S. aureus DSM 20231 = assay: as above
In short: as §2

S. aureus Newman = assay: as above
In short: as §2

S. pneumoniae D39V [4] = assay: as above
In short: as §2

[5] = first compound 0.001 µg/mL, partner 2 µg/mL, one replicate
[6] = first compound 0.001 µg/mL, partner 4 µg/mL, one replicate
[7] = first compound 0.001 µg/mL, partner 8 µg/mL, one replicate
[8] = first compound 0.002 µg/mL, partner 2 µg/mL, one replicate
[9] = first compound 0.002 µg/mL, partner 4 µg/mL, one replicate
[10] = first compound 0.002 µg/mL, partner 8 µg/mL, one replicate
[11] = first compound 0.0039 µg/mL, partner 2 µg/mL, one replicate
[12] = first compound 0.0039 µg/mL, partner 4 µg/mL, one replicate
[13] = first compound 0.0039 µg/mL, partner 8 µg/mL, one replicate
[14] = first compound 0.0312 µg/mL, partner 2 µg/mL
[15] = first compound 0.0312 µg/mL, partner 4 µg/mL
[16] = first compound 0.0312 µg/mL, partner 8 µg/mL
[17] = first compound 0.0625 µg/mL, partner 2 µg/mL
[18] = first compound 0.0625 µg/mL, partner 4 µg/mL
[19] = first compound 0.0625 µg/mL, partner 8 µg/mL
[20] = first compound 0.125 µg/mL, partner 2 µg/mL
[21] = first compound 0.125 µg/mL, partner 4 µg/mL
[22] = first compound 0.125 µg/mL, partner 8 µg/mL
[23] = first compound 0.1725 µg/mL, partner 4 µg/mL
[24] = first compound 0.1725 µg/mL, partner 8 µg/mL
[25] = first compound 0.345 µg/mL, partner 4 µg/mL
[26] = first compound 0.345 µg/mL, partner 8 µg/mL
[27] = first compound 0.69 µg/mL, partner 4 µg/mL
[28] = first compound 0.69 µg/mL, partner 8 µg/mL
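Throughout, for Bliss interaction score (quartile over a dose matrix): first quartile when negative (synergy) and third quartile when positive (antagonism).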

C[C@H]1COc2c(N3CCN(C)CC3)c(F)cc3c(=O)c(C(=O)O)cn1c23 [Levofloxacin] + CN(N=O)C(=O)N[C@@H](C=O)[C@@H](O)[C@H](O)[C@H](O)CO [Streptozotocin]
fitness (B. subtilis 168 [1]; first compound 0.001 µg/mL, partner 0.15 µg/mL, one replicate): 0.98
fitness (B. subtilis 168 [1]; first compound 0.001 µg/mL, partner 0.3 µg/mL, one replicate): 0.96
fitness (B. subtilis 168 [1]; first compound 0.001 µg/mL, partner 0.6 µg/mL, one replicate): ≥ 1
fitness (B. subtilis 168 [1]; first compound 0.002 µg/mL, partner 0.15 µg/mL, one replicate): 0.923
fitness (B. subtilis 168 [1]; first compound 0.002 µg/mL, partner 0.3 µg/mL, one replicate): 0.948
fitness (B. subtilis 168 [1]; first compound 0.002 µg/mL, partner 0.6 µg/mL, one replicate): ≥ 1
fitness (B. subtilis 168 [1]; first compound 0.0039 µg/mL, partner 0.15 µg/mL, one replicate): 0.934
fitness (B. subtilis 168 [1]; first compound 0.0039 µg/mL, partner 0.3 µg/mL, one replicate): 0.886
fitness (B. subtilis 168 [1]; first compound 0.0039 µg/mL, partner 0.6 µg/mL, one replicate): 0.979
fitness (B. subtilis 168 [1]; first compound 0.0312 µg/mL, partner 0.15 µg/mL, one replicate): 0.0317
fitness (B. subtilis 168 [1]; first compound 0.0312 µg/mL, partner 0.3 µg/mL, one replicate): 0.0288
fitness (B. subtilis 168 [1]; first compound 0.0312 µg/mL, partner 0.6 µg/mL, one replicate): 0.025
fitness (B. subtilis 168 [1]; first compound 0.0625 µg/mL, partner 0.15 µg/mL, one replicate): 0.0292
fitness (B. subtilis 168 [1]; first compound 0.0625 µg/mL, partner 0.3 µg/mL, one replicate): 0.0412
fitness (B. subtilis 168 [1]; first compound 0.0625 µg/mL, partner 0.6 µg/mL, one replicate): 0.0304
fitness (B. subtilis 168 [1]; first compound 0.125 µg/mL, partner 0.15 µg/mL, one replicate): 0.0367
fitness (B. subtilis 168 [1]; first compound 0.125 µg/mL, partner 0.3 µg/mL, one replicate): 0.0451
fitness (B. subtilis 168 [1]; first compound 0.125 µg/mL, partner 0.6 µg/mL, one replicate): 0.0177
fitness (S. pneumoniae D39V [2]; first compound 0.1725 µg/mL, partner 1.2 µg/mL): 0.938
fitness (S. pneumoniae D39V [2]; first compound 0.1725 µg/mL, partner 2.4 µg/mL): 0.936
fitness (S. pneumoniae D39V [2]; first compound 0.1725 µg/mL, partner 4.8 µg/mL): 0.952
fitness (S. pneumoniae D39V [2]; first compound 0.2 µg/mL, partner 1.2 µg/mL, one replicate): 0.925
fitness (S. pneumoniae D39V [2]; first compound 0.2 µg/mL, partner 2.4 µg/mL, one replicate): 0.909
fitness (S. pneumoniae D39V [2]; first compound 0.2 µg/mL, partner 4.8 µg/mL, one replicate): 0.823
fitness (S. pneumoniae D39V [2]; first compound 0.345 µg/mL, partner 1.2 µg/mL): 0.816
fitness (S. pneumoniae D39V [2]; first compound 0.345 µg/mL, partner 2.4 µg/mL): 0.845
fitness (S. pneumoniae D39V [2]; first compound 0.345 µg/mL, partner 4.8 µg/mL): 0.841
fitness (S. pneumoniae D39V [2]; first compound 0.4 µg/mL, partner 1.2 µg/mL, one replicate): 0.759
fitness (S. pneumoniae D39V [2]; first compound 0.4 µg/mL, partner 2.4 µg/mL, one replicate): 0.802
fitness (S. pneumoniae D39V [2]; first compound 0.4 µg/mL, partner 4.8 µg/mL, one replicate): 0.603
fitness (S. pneumoniae D39V [2]; first compound 0.69 µg/mL, partner 1.2 µg/mL): 0.362
fitness (S. pneumoniae D39V [2]; first compound 0.69 µg/mL, partner 2.4 µg/mL): 0.398
fitness (S. pneumoniae D39V [2]; first compound 0.69 µg/mL, partner 4.8 µg/mL): 0.44
fitness (S. pneumoniae D39V [2]; first compound 0.8 µg/mL, partner 1.2 µg/mL, one replicate): 0.259
fitness (S. pneumoniae D39V [2]; first compound 0.8 µg/mL, partner 2.4 µg/mL, one replicate): 0.302
fitness (S. pneumoniae D39V [2]; first compound 0.8 µg/mL, partner 4.8 µg/mL, one replicate): 0.0669
Bliss interaction score (B. subtilis 168 [3]): 0.0603
Bliss interaction score (S. aureus DSM 20231): -0.0228
Bliss interaction score (S. aureus Newman): -0.102
Bliss interaction score (S. pneumoniae D39V [4]): -0.0624

C[C@H]1COc2c(N3CCN(C)CC3)c(F)cc3c(=O)c(C(=O)O)cn1c23 [Levofloxacin] + CN[C@@H]1[C@H](O)[C@H](NC)[C@H]2O[C@@]3(O)C(=O)C[C@@H](C)O[C@H]3O[C@@H]2[C@H]1O [Spectinomycin]
fitness (B. subtilis 168 [1]; [5]): 0.986
fitness (B. subtilis 168 [1]; [6]): 0.955
fitness (B. subtilis 168 [1]; [7]): 0.99
fitness (B. subtilis 168 [1]; [8]): 0.966
fitness (B. subtilis 168 [1]; [9]): 0.888
fitness (B. subtilis 168 [1]; [10]): 0.912
fitness (B. subtilis 168 [1]; [11]): 0.988
fitness (B. subtilis 168 [1]; [12]): ≥ 1
fitness (B. subtilis 168 [1]; [13]): ≥ 1
fitness (B. subtilis 168 [1]; [14]): 0.036
fitness (B. subtilis 168 [1]; [15]): 0.0347
fitness (B. subtilis 168 [1]; [16]): 0.0234
fitness (B. subtilis 168 [1]; [17]): 0.0431
fitness (B. subtilis 168 [1]; [18]): 0.0352
fitness (B. subtilis 168 [1]; [19]): 0.0342
fitness (B. subtilis 168 [1]; [20]): 0.0402
fitness (B. subtilis 168 [1]; [21]): 0.0401
fitness (B. subtilis 168 [1]; [22]): 0.0261
fitness (S. pneumoniae D39V [2]; [23]): 0.875
fitness (S. pneumoniae D39V [2]; [24]): 0.928
fitness (S. pneumoniae D39V [2]; first compound 0.1725 µg/mL, partner 16 µg/mL): 0.835
fitness (S. pneumoniae D39V [2]; first compound 0.2 µg/mL, partner 4 µg/mL, one replicate): 0.96
fitness (S. pneumoniae D39V [2]; first compound 0.2 µg/mL, partner 8 µg/mL, one replicate): 0.9
fitness (S. pneumoniae D39V [2]; [25]): 0.808
fitness (S. pneumoniae D39V [2]; [26]): 0.816
fitness (S. pneumoniae D39V [2]; first compound 0.345 µg/mL, partner 16 µg/mL): 0.737
fitness (S. pneumoniae D39V [2]; first compound 0.4 µg/mL, partner 4 µg/mL, one replicate): 0.868
fitness (S. pneumoniae D39V [2]; first compound 0.4 µg/mL, partner 8 µg/mL, one replicate): 0.804
fitness (S. pneumoniae D39V [2]; [27]): 0.41
fitness (S. pneumoniae D39V [2]; [28]): 0.439
fitness (S. pneumoniae D39V [2]; first compound 0.69 µg/mL, partner 16 µg/mL): 0.396
fitness (S. pneumoniae D39V [2]; first compound 0.8 µg/mL, partner 4 µg/mL, one replicate): 0.446
fitness (S. pneumoniae D39V [2]; first compound 0.8 µg/mL, partner 8 µg/mL, one replicate): 0.508
Bliss interaction score (B. subtilis 168 [3]): -0.0192
Bliss interaction score (S. aureus DSM 20231): 0.0353
Bliss interaction score (S. aureus Newman): -0.0582
Bliss interaction score (S. pneumoniae D39V [4]): -0.0643

C[C@H]1COc2c(N3CCN(C)CC3)c(F)cc3c(=O)c(C(=O)O)cn1c23 [Levofloxacin] + CN[C@@H]1[C@H](O[C@H]2[C@H](O[C@H]3[C@H](O)[C@@H](O)[C@H](N=C(N)N)[C@@H](O)[C@@H]3N=C(N)N)O[C@@H](C)[C@]2(O)C=O)O[C@@H](CO)[C@H](O)[C@H]1O [Streptomycin]
fitness (B. subtilis 168 [1]; [5]): 0.963
fitness (B. subtilis 168 [1]; [6]): ≥ 1
fitness (B. subtilis 168 [1]; [7]): 0.252
fitness (B. subtilis 168 [1]; [8]): 0.952
fitness (B. subtilis 168 [1]; [9]): 0.737
fitness (B. subtilis 168 [1]; [10]): 0.0282
fitness (B. subtilis 168 [1]; [11]): 0.932
fitness (B. subtilis 168 [1]; [12]): 0.832
fitness (B. subtilis 168 [1]; [13]): 0.047
fitness (B. subtilis 168 [1]; [14]): 0.0408
fitness (B. subtilis 168 [1]; [15]): 0.0413
fitness (B. subtilis 168 [1]; [16]): 0.0242
fitness (B. subtilis 168 [1]; [17]): 0.0475
fitness (B. subtilis 168 [1]; [18]): 0.0546
fitness (B. subtilis 168 [1]; [19]): 0.033
fitness (B. subtilis 168 [1]; [20]): 0.0446
fitness (B. subtilis 168 [1]; [21]): 0.0475
fitness (B. subtilis 168 [1]; [22]): 0.0333
fitness (S. pneumoniae D39V [2]; first compound 0.1725 µg/mL, partner 2 µg/mL): 0.942
fitness (S. pneumoniae D39V [2]; [23]): 0.923
fitness (S. pneumoniae D39V [2]; [24]): 0.927
fitness (S. pneumoniae D39V [2]; first compound 0.2 µg/mL, partner 2 µg/mL, one replicate): 0.955
fitness (S. pneumoniae D39V [2]; first compound 0.2 µg/mL, partner 4 µg/mL): 0.9
fitness (S. pneumoniae D39V [2]; first compound 0.2 µg/mL, partner 8 µg/mL): 0.798
fitness (S. pneumoniae D39V [2]; first compound 0.2 µg/mL, partner 16 µg/mL, one replicate): 0.718
fitness (S. pneumoniae D39V [2]; first compound 0.345 µg/mL, partner 2 µg/mL): 0.817
fitness (S. pneumoniae D39V [2]; [25]): 0.812
fitness (S. pneumoniae D39V [2]; [26]): 0.788
fitness (S. pneumoniae D39V [2]; first compound 0.4 µg/mL, partner 2 µg/mL, one replicate): 0.855
fitness (S. pneumoniae D39V [2]; first compound 0.4 µg/mL, partner 4 µg/mL): 0.806
fitness (S. pneumoniae D39V [2]; first compound 0.4 µg/mL, partner 8 µg/mL): 0.704
fitness (S. pneumoniae D39V [2]; first compound 0.4 µg/mL, partner 16 µg/mL, one replicate): 0.602
fitness (S. pneumoniae D39V [2]; first compound 0.69 µg/mL, partner 2 µg/mL): 0.316
fitness (S. pneumoniae D39V [2]; [27]): 0.422
fitness (S. pneumoniae D39V [2]; [28]): 0.445
fitness (S. pneumoniae D39V [2]; first compound 0.8 µg/mL, partner 2 µg/mL, one replicate): 0.346
fitness (S. pneumoniae D39V [2]; first compound 0.8 µg/mL, partner 4 µg/mL): 0.307
fitness (S. pneumoniae D39V [2]; first compound 0.8 µg/mL, partner 8 µg/mL): 0.293
fitness (S. pneumoniae D39V [2]; first compound 0.8 µg/mL, partner 16 µg/mL, one replicate): 0.208
Bliss interaction score (B. subtilis 168 [3]): 0.0365
Bliss interaction score (S. aureus DSM 20231): -0.0487
Bliss interaction score (S. aureus Newman): 0.0694
Bliss interaction score (S. pneumoniae D39V [4]): -0.0992
